Results: patent US20240041796A1, “ANTI-INFLAMMATORY COMPOSITION COMPRISING N-BENZYL-N-METHYLDECAN-1-AMINE OR A DERIVATIVE THEREOF AS AN ACTIVE INGREDIENT” (PUSAN NATIONAL UNIVERSITY INDUSTRY-UNIVERSITY COOPERATION …, priority 2022, published 2024)

Assays:
THP-1 cell line = assay: LPS-induced signaling pathway in THP-1 cells pretreated with FMJ-G0 derivatives; format: cell-based, human; settings: pretreated 4 μM 1 hour, LPS 1 μg/mL 4 hours; FIG. 8B
Procedure: Thereafter, the THP-1 cell line was pretreated with the synthesized FMJ-G0 derivatives FMJ-G1, FMJ-G2, and FMJ-G3 at a concentration of 4 μM for 1 hour. Lipopolysaccharide (1 μg/mL) was added to a culture medium in which the THP-1 cell line was cultured for 4 hours. The same cell line was collected, and a signaling pathway involved in inflammatory cytokine synthesis was identified, and the result is shown in FIG. 8B.

Balb/C mice = assay: DNCB-induced atopic dermatitis model, cosmetic cream applied to the skin; format: in vivo, mouse; settings: for DNCB-induced atopic dermatitis (level of dermatitis): cosmetic cream (0.3% active; Lidomax ointment 0.15%) applied to the back for 2 weeks, FIG. 9A, 9C
Procedure: Wed added 0.3 g of olive wax to 2 mL of soybean oil (Sigma-Aldrich) in a glass tube (15 ml), and put the tube in a 75° C. water-bath, and performed a double boiling thereon to melt the olive wax for 30 minutes while vortexing the tube at 10 minute interval. Under the same conditions, 7.7 ml of purified water was put into a 75° C. water-bath and heated the same for 30 minutes. Next, 7.5 ml of purified water was poured into the tube containing the olive wax and the mixture was stirred well via vortexing. Then, […] (0.3%) of each of BMDA and derivatives thereof (FMJ-G0, FMJ-G4, FMJ-G1, FMJ-G2, FMJ-G3) as synthesized in Examples 1 and 3 were added to the mixture, followed by stirring. The reaction product was cooled in ice and prepared in the form of a cosmetic cream.
In order to induce atopic dermatitis using 5-week-old Balb/C mice, hair on the back of the mouse was removed therefrom, and after one day, a 0.5% solution in which DNCB (2,4-dinitrochlorobenzne) is mixed with acetone and olive oil (3:1) was prepared, and then was applied thereon for 3 consecutive days by 150 μL per each day. Thereafter, the solution of the same concentration was applied to the back area from which the hair was removed twice a week and this process continued for 2 weeks. Further, to alleviate atopic dermatitis induced in this way, the cosmetic cream containing each of BMDA (FMJ-G0) and the derivatives thereof (FMJ-G4, FMJ-G1, FMJ-G2, FMJ-G3) of the present disclosure as prepared above was applied to the back of rats with the induced atopic dermatitis for 2 weeks, and then, changes in skin inflammation were examined.
The experimental results of FIG. 10A and FIG. 10B was obtained as follows as in FIG. 9. The skin tissue was removed from the back of the mouse in the group, and was placed fixedly in 10% formaldehyde for 48 hours, and paraffin pieces were made, and the pieces were thinly sliced so as to have a thickness of 4 μm and was subjected to hematoxylin-esoin staining. Then, whether the damaged skin tissue was recovered by each of BMDA (FMJ-G0) and DMMA (FMJ-G4) was examined using an optical microscope equipped with a Leica application (Leica Microsystems, Switzerland).
To this end, the atopic dermatitis is induced in FIG. 9, and on 2 weeks since the treatment with BMDA (FMJ-G0) and DMMA (FMJ-G4), blood (500 ul) is collected from the hepatic veins of the rats of the above groups, and left at room temperature for 30 minutes. Then, serum was separated and prepared via centrifugation, and then, the IgE concentration related to the allergic reaction was measured through ELISA using the serum thus prepared.
Anti-mouse IgE (Pharmingen, CA, USA) was diluted with PBS (pH 7.4) on a 96-well plate, 100 μL thereof was coated on each 96-well plate, and then left at 4° C. for 12 hours. The plate was washed with PBS containing 0.05% tween. Blocking was performed thereon for 1 hour with PBS containing 1% BSA, 5% sucrose, and 0.05% NaN3. Washing was performed thereon several times using washing buffer. Recombinant IgE and serum were added thereto, and reaction occurred at 37° C. for 2 hours, and each well was washed again, and biotinylated IgE (Pharmingen, CA, USA) was added thereto. Reaction occurred for 2 hours. After washing the well, avidin peroxidase was added thereto and reaction occurred at 37° C. for 30 minutes. Then, the well was washed and then, ABTS solution as a substrate was added thereto. Absorbance was measured at 405 nm using ELISA reader (Epoch2, Biotek, VT, USA).
FIG. 11 show data obtained as follows. The atopic dermatitis was induced as described in FIG. 9, and on 2 weeks since the treatment with BMDA or DMMA (FMJ-G0/G4), a portion of the skin tissue of the rats in the groups were put in Trisol solution and the tissue was crushed in a sonicator. […]

[1] = cosmetic cream (Lidomax ointment 0.15%) applied for 2 weeks, FIG. 9B, 9D

| SMILES | phosphorylation of JNK resulting from LPS (THP-1 cell line) | phosphorylation of MK2 resulting from LPS (THP-1 cell line) | phosphorylation of p38 MAP kinase resulting from LPS (THP-1 cell line) | DNCB-induced atopic dermatitis (level of dermatitis) (Balb/C mice) | size of the (inguinal) lymph node (Balb/C mice; [1]) | size of the spleen (Balb/C mice; [1]) |
| --- | --- | --- | --- | --- | --- | --- |
| CCCCCCCCCCN(CC)Cc1ccccc1 [FMJ-G1, Benzyl-decyl-ethyl-amine] | inhibited | inhibited | inhibited | significantly alleviates |  |  |
| CCCCCCCCCCCCN(C)Cc1ccccc1 [FMJ-G2, benzyl-dodecyl-methyl-amine] | inhibited | inhibited | inhibited | did not prevent | increased | increased |
